Measurements as given in the NIST ThermoML archive (doi:10.1021/acs.jced.7b00106).
“And” between values parts separate entries of the source, which are not always exact repeats. Identical values can stand only once.

Conditions: Hot wire method

FC(F)(F)/C=C/Cl [(E)-1-chloro-3,3,3-trifluoroprop-1-ene]
Conditions	thermal conductivity
423.65 K, 7612 kPa, Liquid	0.05622 W/m/K
423.65 K, 7619 kPa, Liquid	0.05627 W/m/K
423.65 K, 22720 kPa, Liquid	0.06706 W/m/K
423.66 K, 22716 kPa, Liquid	0.06723 W/m/K
423.67 K, 28114 kPa, Liquid	0.07024 W/m/K
423.69 K, 28097 kPa, Liquid	0.07022 W/m/K
423.72 K, 13391 kPa, Liquid	0.0611 W/m/K
423.72 K, 13398 kPa, Liquid	0.06111 W/m/K
423.77 K, 20045 kPa, Liquid	0.06561 W/m/K
423.77 K, 20052 kPa, Liquid	0.06562 W/m/K
423.78 K, 11664 kPa, Liquid	0.05978 W/m/K
423.79 K, 11674 kPa, Liquid	0.05981 W/m/K
423.83 K, 25690 kPa, Liquid	0.06889 W/m/K
423.84 K, 25696 kPa, Liquid	0.06888 W/m/K
423.85 K, 10139 kPa, Liquid	0.05851 W/m/K
423.86 K, 10145 kPa, Liquid	0.05848 W/m/K
423.86 K, 17471 kPa, Liquid	0.06395 W/m/K
423.87 K, 17475 kPa, Liquid	0.06396 W/m/K
423.93 K, 15376 kPa, Liquid	0.06253 W/m/K
423.93 K, 15379 kPa, Liquid	0.06254 W/m/K
423.94 K, 22691 kPa, Liquid	0.06716 W/m/K
423.95 K, 22710 kPa, Liquid	0.06724 W/m/K
424.02 K, 13386 kPa, Liquid	0.06109 W/m/K
424.02 K, 13393 kPa, Liquid	0.06113 W/m/K
451.03 K, 4240 kPa, Fluid (supercritical or subcritical phases)	0.04303 W/m/K
451.04 K, 4194 kPa, Fluid (supercritical or subcritical phases)	0.04141 W/m/K
451.04 K, 4285 kPa, Fluid (supercritical or subcritical phases)	0.0443 W/m/K
451.05 K, 4194 kPa, Fluid (supercritical or subcritical phases)	0.04138 W/m/K
451.05 K, 4285 kPa, Fluid (supercritical or subcritical phases)	0.04428 W/m/K
451.1 K, 4194 kPa, Fluid (supercritical or subcritical phases)	0.0413 W/m/K
451.11 K, 4329 kPa, Fluid (supercritical or subcritical phases)	0.04555 W/m/K
451.12 K, 4329 kPa, Fluid (supercritical or subcritical phases)	0.04569 W/m/K
451.13 K, 4146 kPa, Fluid (supercritical or subcritical phases)	0.03927 W/m/K
451.14 K, 4146 kPa, Fluid (supercritical or subcritical phases)	0.03925 W/m/K
451.15 K, 4091 kPa, Fluid (supercritical or subcritical phases)	0.03775 W/m/K
451.19 K, 4240 kPa, Fluid (supercritical or subcritical phases)	0.0441 W/m/K
451.2 K, 4146 kPa, Fluid (supercritical or subcritical phases)	0.03962 W/m/K
451.2 K, 4240 kPa, Fluid (supercritical or subcritical phases)	0.04407 W/m/K
451.21 K, 4024 kPa, Fluid (supercritical or subcritical phases)	0.03539 W/m/K
451.21 K, 4146 kPa, Fluid (supercritical or subcritical phases)	0.03961 W/m/K
451.21 K, 4329 kPa, Fluid (supercritical or subcritical phases)	0.0465 W/m/K
451.22 K, 4091 kPa, Fluid (supercritical or subcritical phases)	0.03768 W/m/K
451.22 K, 4285 kPa, Fluid (supercritical or subcritical phases)	0.04586 W/m/K
451.22 K, 4329 kPa, Fluid (supercritical or subcritical phases)	0.04642 W/m/K
451.24 K, 4335 kPa, Fluid (supercritical or subcritical phases)	0.04596 W/m/K
451.24 K, 4404 kPa, Fluid (supercritical or subcritical phases)	0.04602 W/m/K
451.25 K, 4146 kPa, Fluid (supercritical or subcritical phases)	0.03998 W/m/K
451.25 K, 4335 kPa, Fluid (supercritical or subcritical phases)	0.04625 W/m/K
451.25 K, 4404 kPa, Fluid (supercritical or subcritical phases)	0.04634 W/m/K
451.26 K, 3939 kPa, Fluid (supercritical or subcritical phases)	0.03353 W/m/K
451.27 K, 4025 kPa, Fluid (supercritical or subcritical phases)	0.03578 W/m/K
451.28 K, 4024 kPa, Fluid (supercritical or subcritical phases)	0.03519 W/m/K
451.28 K, 4091 kPa, Fluid (supercritical or subcritical phases)	0.03788 W/m/K
451.29 K, 4090 kPa, Fluid (supercritical or subcritical phases)	0.0379 W/m/K
451.3 K, 4146 kPa, Fluid (supercritical or subcritical phases)	0.04026 W/m/K
451.31 K, 4146 kPa, Fluid (supercritical or subcritical phases)	0.04022 W/m/K
451.32 K, 3831 kPa, Fluid (supercritical or subcritical phases)	0.03175 W/m/K
451.35 K, 3691 kPa, Fluid (supercritical or subcritical phases)	0.02988 W/m/K
451.35 K, 4024 kPa, Fluid (supercritical or subcritical phases)	0.03573 W/m/K
451.35 K, 4025 kPa, Fluid (supercritical or subcritical phases)	0.03528 W/m/K
451.35 K, 4091 kPa, Fluid (supercritical or subcritical phases)	0.0383 W/m/K
451.36 K, 3691 kPa, Fluid (supercritical or subcritical phases)	0.02992 W/m/K
451.36 K, 4091 kPa, Fluid (supercritical or subcritical phases)	0.03832 W/m/K
451.37 K, 4404 kPa, Fluid (supercritical or subcritical phases)	0.04741 W/m/K
451.38 K, 3649 kPa, Fluid (supercritical or subcritical phases)	0.02977 W/m/K
451.39 K, 3831 kPa, Fluid (supercritical or subcritical phases)	0.03167 W/m/K
451.4 K, 3831 kPa, Fluid (supercritical or subcritical phases)	0.03184 W/m/K
451.41 K, 3939 kPa, Fluid (supercritical or subcritical phases)	0.03376 W/m/K
451.42 K, 3508 kPa, Fluid (supercritical or subcritical phases)	0.02833 W/m/K
451.43 K, 3509 kPa, Fluid (supercritical or subcritical phases)	0.02845 W/m/K
451.44 K, 3691 kPa, Fluid (supercritical or subcritical phases)	0.02982 W/m/K
451.44 K, 4090 kPa, Fluid (supercritical or subcritical phases)	0.03859 W/m/K
451.44 K, 4091 kPa, Fluid (supercritical or subcritical phases)	0.03884 W/m/K
451.45 K, 3691 kPa, Fluid (supercritical or subcritical phases)	0.03 W/m/K
451.45 K, 4479 kPa, Fluid (supercritical or subcritical phases)	0.04701 W/m/K and 0.04717 W/m/K
451.46 K, 3650 kPa, Fluid (supercritical or subcritical phases)	0.02974 W/m/K
451.47 K, 3830 kPa, Fluid (supercritical or subcritical phases)	0.03201 W/m/K
451.47 K, 4579 kPa, Fluid (supercritical or subcritical phases)	0.04622 W/m/K
451.47 K, 4580 kPa, Fluid (supercritical or subcritical phases)	0.04624 W/m/K
451.48 K, 3651 kPa, Fluid (supercritical or subcritical phases)	0.02988 W/m/K
451.48 K, 3831 kPa, Fluid (supercritical or subcritical phases)	0.03192 W/m/K
451.5 K, 3272 kPa, Fluid (supercritical or subcritical phases)	0.02692 W/m/K
451.5 K, 3273 kPa, Fluid (supercritical or subcritical phases)	0.02709 W/m/K
451.5 K, 4908 kPa, Fluid (supercritical or subcritical phases)	0.04557 W/m/K and 0.04553 W/m/K
451.51 K, 3508 kPa, Fluid (supercritical or subcritical phases)	0.02853 W/m/K
451.51 K, 4024 kPa, Fluid (supercritical or subcritical phases)	0.03641 W/m/K
451.51 K, 4025 kPa, Fluid (supercritical or subcritical phases)	0.03631 W/m/K
451.52 K, 4479 kPa, Fluid (supercritical or subcritical phases)	0.04791 W/m/K
451.52 K, 5208 kPa, Fluid (supercritical or subcritical phases)	0.04584 W/m/K and 0.04601 W/m/K
451.53 K, 4479 kPa, Fluid (supercritical or subcritical phases)	0.04799 W/m/K
451.54 K, 3691 kPa, Fluid (supercritical or subcritical phases)	0.03 W/m/K and 0.03016 W/m/K
451.54 K, 4580 kPa, Fluid (supercritical or subcritical phases)	0.04656 W/m/K
451.55 K, 4580 kPa, Fluid (supercritical or subcritical phases)	0.04665 W/m/K
451.56 K, 3650 kPa, Fluid (supercritical or subcritical phases)	0.02992 W/m/K
451.57 K, 3650 kPa, Fluid (supercritical or subcritical phases)	0.02995 W/m/K
451.57 K, 3831 kPa, Fluid (supercritical or subcritical phases)	0.0321 W/m/K
451.58 K, 3831 kPa, Fluid (supercritical or subcritical phases)	0.0323 W/m/K
451.59 K, 4908 kPa, Fluid (supercritical or subcritical phases)	0.04582 W/m/K and 0.04575 W/m/K
451.6 K, 5208 kPa, Fluid (supercritical or subcritical phases)	0.04598 W/m/K and 0.04588 W/m/K
451.61 K, 3273 kPa, Fluid (supercritical or subcritical phases)	0.02708 W/m/K
451.61 K, 4734 kPa, Fluid (supercritical or subcritical phases)	0.046 W/m/K
451.62 K, 3273 kPa, Fluid (supercritical or subcritical phases)	0.027 W/m/K
451.62 K, 3508 kPa, Fluid (supercritical or subcritical phases)	0.02859 W/m/K
451.62 K, 3509 kPa, Fluid (supercritical or subcritical phases)	0.02863 W/m/K
451.62 K, 4579 kPa, Fluid (supercritical or subcritical phases)	0.04727 W/m/K
451.62 K, 4580 kPa, Fluid (supercritical or subcritical phases)	0.0472 W/m/K
451.62 K, 4734 kPa, Fluid (supercritical or subcritical phases)	0.0461 W/m/K
451.64 K, 3691 kPa, Fluid (supercritical or subcritical phases)	0.03032 W/m/K and 0.03035 W/m/K
451.66 K, 2992 kPa, Fluid (supercritical or subcritical phases)	0.02577 W/m/K
451.67 K, 2990 kPa, Fluid (supercritical or subcritical phases)	0.02601 W/m/K
451.67 K, 3650 kPa, Fluid (supercritical or subcritical phases)	0.02999 W/m/K
451.67 K, 4909 kPa, Fluid (supercritical or subcritical phases)	0.04592 W/m/K
451.68 K, 4909 kPa, Fluid (supercritical or subcritical phases)	0.04602 W/m/K
451.68 K, 5207 kPa, Fluid (supercritical or subcritical phases)	0.04609 W/m/K
451.69 K, 5207 kPa, Fluid (supercritical or subcritical phases)	0.04582 W/m/K
451.7 K, 4580 kPa, Fluid (supercritical or subcritical phases)	0.04772 W/m/K
451.7 K, 4734 kPa, Fluid (supercritical or subcritical phases)	0.04631 W/m/K
451.71 K, 4580 kPa, Fluid (supercritical or subcritical phases)	0.04774 W/m/K
451.71 K, 4734 kPa, Fluid (supercritical or subcritical phases)	0.04636 W/m/K
451.72 K, 3272 kPa, Fluid (supercritical or subcritical phases)	0.02716 W/m/K
451.73 K, 2617 kPa, Fluid (supercritical or subcritical phases)	0.02492 W/m/K and 0.02475 W/m/K
451.73 K, 3273 kPa, Fluid (supercritical or subcritical phases)	0.02707 W/m/K
451.74 K, 3509 kPa, Fluid (supercritical or subcritical phases)	0.02878 W/m/K and 0.02877 W/m/K
451.76 K, 4908 kPa, Fluid (supercritical or subcritical phases)	0.04609 W/m/K
451.76 K, 4909 kPa, Fluid (supercritical or subcritical phases)	0.04628 W/m/K
451.77 K, 3650 kPa, Fluid (supercritical or subcritical phases)	0.0303 W/m/K
451.77 K, 5207 kPa, Fluid (supercritical or subcritical phases)	0.0462 W/m/K
451.77 K, 5208 kPa, Fluid (supercritical or subcritical phases)	0.04621 W/m/K
451.78 K, 2992 kPa, Fluid (supercritical or subcritical phases)	0.02586 W/m/K
451.78 K, 3650 kPa, Fluid (supercritical or subcritical phases)	0.03036 W/m/K
451.79 K, 2166 kPa, Fluid (supercritical or subcritical phases)	0.02402 W/m/K
451.79 K, 2992 kPa, Fluid (supercritical or subcritical phases)	0.02587 W/m/K
451.8 K, 2167 kPa, Fluid (supercritical or subcritical phases)	0.02395 W/m/K
451.8 K, 4735 kPa, Fluid (supercritical or subcritical phases)	0.0468 W/m/K
451.85 K, 3273 kPa, Fluid (supercritical or subcritical phases)	0.02717 W/m/K and 0.02719 W/m/K
451.85 K, 3509 kPa, Fluid (supercritical or subcritical phases)	0.02883 W/m/K
451.86 K, 1669 kPa, Fluid (supercritical or subcritical phases)	0.0235 W/m/K
451.86 K, 1672 kPa, Fluid (supercritical or subcritical phases)	0.02345 W/m/K
451.87 K, 2617 kPa, Fluid (supercritical or subcritical phases)	0.02483 W/m/K
451.87 K, 2618 kPa, Fluid (supercritical or subcritical phases)	0.02473 W/m/K
451.89 K, 4734 kPa, Fluid (supercritical or subcritical phases)	0.0473 W/m/K
451.89 K, 4735 kPa, Fluid (supercritical or subcritical phases)	0.04729 W/m/K
451.91 K, 2992 kPa, Fluid (supercritical or subcritical phases)	0.02598 W/m/K
451.92 K, 2991 kPa, Fluid (supercritical or subcritical phases)	0.02605 W/m/K
451.93 K, 5207 kPa, Fluid (supercritical or subcritical phases)	0.04646 W/m/K
